Like-named read-outs stand apart in the source and are kept apart here.
Legend:
[1] = system: Huh-7 ET, Molt-4, DU-145, Hep-G2 and SH-SY5Y cells; assay: [3H]Thymidine incorporation assay (cytotoxicity, CC50); conditions: [3H]thymidine incorporation; cell line not given
[2] = system: HCV sub-genomic replicon of genotype 1a in replicon cell line W11.8; assay: microbe, parasite or virus in culture; assay type: cell-based, Hepatitis C virus; conditions: read-out: HCV-Replicon-ELISA-1a IC50
[3] = [3H]Thymidine incorporation assay (cytotoxicity, CC50); conditions: human

5-(3,3-dimethylbut-1-yn-1-yl)-3-(trans-4-methyl-N-((S)-1-methylsulfonyl)pyrrolidin-3-yl)thiophene-2-carboxylic acid [Compound 68]
CC50 [1]: > 100 µM | IC50 [2]: < 0.1 µM

CC(C)C#Cc1cc(N(C(=O)[C@H]2CC[C@H](C)CC2)[C@H]2CC[C@@H](OCCO)CC2)c(C(=O)O)s1 [Compound 61, 5-(3-Methylbut-1-yn-1-yl)-3-((N-4-cis-(2-hydroxy)-ethoxycyclohexyl)-(4-trans-methylcyclohexane)carboxamido)thiophene-2-carboxylic acid]
CC50 [1]: 10 to 100 µM | IC50 [2]: 0.1 to 1 µM

CN(C)C(=O)[C@H]1C[C@H](N(c2cc(C#CC(C)(C)C)sc2C(=O)O)C(=O)[C@H]2CC[C@H](C)CC2)C1 [Compound 63, 5-(3,3-Dimethylbut-1-yn-1-yl)-3-(N-(3-trans-(dimethylcarbamoyl)-cyclobutyl)-4-trans-methylcyclohexanecarboxamido)thiophene-2-carboxylic acid]
CC50 [1]: > 100 µM | IC50 [2]: < 0.1 µM

CC(C)c1noc(C(C)N(c2cc(C#CC(C)(C)C)sc2C(=O)O)C(=O)[C@H]2CC[C@H](C)CC2)n1 (some centres unmarked) [Compound 79]
CC50 [1]: 10 to 100 µM | IC50 [2]: 0.1 to 1 µM

CCc1noc(C(C)N(c2cc(C#CC(C)(C)C)sc2C(=O)O)C(=O)[C@H]2CC[C@H](C)CC2)n1 (some centres unmarked) [Compound 75]
CC50 [1]: 10 to 100 µM | IC50 [2]: < 0.1 µM

3-[Cyclohex-3-enyl-(trans-4-methyl-cyclohexanecarbonyl)-amino]-5-(3,3-dimethyl-but-1-ynyl)-thiophene-2-carboxylic acid [Compound 13]
CC50 [1]: 10 to 100 µM | IC50 [2]: 1 to 10 µM

Cc1noc(C)c1CN(c1cc(C#CC(C)(C)C)sc1C(=O)O)C(=O)[C@H]1CC[C@H](C)CC1 [Compound 54, 5-(3,3-Dimethylbut-1-yn-1-yl)-3-(N-((3,5-dimethylisoxazol-4-yl)methyl)-4-trans-methylcyclohexanecarboxamido)thiophene-2-carboxylic acid]
CC50 [1]: 10 to 100 µM | IC50 [2]: < 0.1 µM

5-(3,3-dimethylbut-1-yn-1-yl)-3-(trans-4-methyl-N—((R)-1-methylsulfonyl)pyrrolidin-3-yl)thiophene-2-carboxylic acid [Compound 69]
CC50 [1]: > 100 µM | IC50 [2]: < 0.1 µM

CC(C)C#Cc1cc(N(C(=O)[C@H]2CC[C@H](C)CC2)C2CCOCC2)c(C(=O)O)s1 [Compound 43, 3-(N-(tetrahydro-2H-pyran-4-yl)-4-trans-methyl-cyclohexanecarboxamido)-5-(3-methylbut-1-yn-1-yl)thiophene-2-carboxylic acid]
CC50 [1]: 10 to 100 µM | IC50 [2]: < 0.1 µM

COCC(COC)N(c1cc(C#CC(C)(C)C)sc1C(=O)O)C(=O)[C@H]1CC[C@H](C)CC1 [Compound 39, 3-(-N-(1,3-Dimethoxypropan-2-yl)-4-trans-methylcyclohexanecarboxamido)-5-(3,3-dimethylbut-1-yn-1-yl)thiophene-2-carboxylic acid]
CC50 [1]: 10 to 100 µM | IC50 [2]: 0.1 to 1 µM

CCc1noc(CN(c2cc(C#CC(C)(C)C)sc2C(=O)O)C(=O)[C@H]2CC[C@H](C)CC2)n1 [Compound 78, 5-(3,3-dimethylbut-1-ynyl)-3-[(3-ethyl-1,2,4-oxadiazol-5-yl)methyl-(4-trans-methylcyclohexanecarbonyl)amino]thiophene-2-carboxylic acid]
CC50 [1]: 10 to 100 µM | IC50 [2]: < 0.1 µM

CC(=O)N1CC[C@H](N(c2cc(C#CC(C)(C)C)sc2C(=O)O)C(=O)[C@H]2CC[C@H](C)CC2)C1 (stereo in doubt) [Compound 59, 3-(N—((S)-1-Acetylpyrrolidin-3-yl)-4-trans-methylcyclohexanecarboxamido)-5-(3,3-dimethylbut-1-yn-1-yl)thiophene-2-carboxylic acid]
CC50 [1]: > 100 µM | IC50 [2]: < 0.1 µM

COCCN(c1cc(C#CC(C)(C)C)sc1C(=O)O)C(=O)[C@H]1CC[C@H](C)CC1 [Compound 29, 5-(3,3-Dimethylbut-1-ynyl)-3-(N-(2-methoxyethyl)-4-trans-methylcyclohexanecarboxamido)thiophene-2-carboxylic acid]
CC50 [1]: 10 to 100 µM | IC50 [2]: < 0.1 µM

CN(C)C[C@H]1C[C@H](N(c2cc(C#CC(C)(C)C)sc2C(=O)O)C(=O)[C@H]2CC[C@H](C)CC2)C1 [Compound 70, 5-(3,3-Dimethylbut-1-yn-1-yl)-3-(trans-4-methyl-N((trans-3-(dimethylamino)methyl)cyclobutyl)cyclohexanecarboxamido)thiophene-2 carboxylic acid]
CC50 [1]: > 100 µM | IC50 [2]: < 0.1 µM

CC(C)(C)C#Cc1cc(N(Cc2ccccc2)C(=O)[C@H]2CC[C@H](C)CC2)c(C(=O)O)s1 [Compound 74, 3-[Benzyl-(4-trans-methylcyclohexanecarbonyl)amino]-5-(3,3-dimethylbut-1-ynyl)thiophene-2-carboxylic acid]
CC50 [1]: 10 to 100 µM | IC50 [2]: 0.1 to 1 µM

CC(C)C#Cc1cc(N(C(=O)[C@H]2CC[C@H](C)CC2)[C@H]2CC[C@H](OCCO)CC2)c(C(=O)O)s1 [Compound 62, 5-(3-Methylbut-1-yn-1-yl)-3-((N-4-trans-(2-hydroxy)-ethoxycyclohexyl)-(4-trans-methylcyclohexane)carboxamido)thiophene-2-carboxylic acid]
CC50 [1]: 10 to 100 µM | IC50 [2]: < 0.1 µM

CC(C)(C)C#Cc1cc(N(CC(=O)O)C(=O)[C@H]2CC[C@H](C)CC2)c(C(=O)O)s1 [Compound 2, 3-[Carboxymethyl-(trans-4-methyl-cyclohexanecarbonyl)-amino]-5-(3,3-dimethyl-but-1-ynyl)-thiophene-2-carboxylic acid]
CC50 at 72 h [3]: > 100 µM | IC50 ([2]; Hepatitis C virus, W11.8, 96 h): 0.1 to 1 µM

Cn1ccnc1CN(c1cc(C#CC(C)(C)C)sc1C(=O)O)C(=O)[C@H]1CC[C@H](C)CC1 [Compound 64, 5-(3,3-Dimethylbut-1-ynyl)-3-((trans)-4-methyl-N-((1-methyl-1H-imidazol-2-yl)methyl)cyclohexanecarboxamido)thiophene-2-carboxylic acid]
CC50 at 72 h [3]: 10 to 100 µM | IC50 ([2]; Hepatitis C virus, W11.8, 96 h): < 0.1 µM

CC(C)N(c1cc(C#CC(C)(C)O)sc1C(=O)O)C(=O)[C@H]1CC[C@H](C)CC1 [Compound 19, 5-(3-Hydroxy-3-methyl-but-1-ynyl)-3-[isopropyl-(trans-4-methyl-cyclohexanecarbonyl)-amino]-thiophene-2-carboxylic acid]
CC50 at 72 h [3]: > 100 µM | IC50 ([2]; Hepatitis C virus, W11.8, 96 h): 0.1 to 1 µM

CC(C)(C)C#Cc1cc(N(C(=O)[C@H]2CC[C@H](C)CC2)[C@H]2C[C@@H](CO)C2)c(C(=O)O)s1 [Compound 76, 5-(3,3-dimethylbut-1-yn-1-yl)-3-(trans-4-methyl-N-(cis-3-(hydroxymethyl)cyclobutyl)cyclohexanecarboxamido)thiophene-2-carboxylic acid]
CC50 at 72 h [3]: > 100 µM | IC50 ([2]; Hepatitis C virus, W11.8, 96 h): < 0.1 µM

CC(C)(C)C#Cc1cc(N(C(=O)c2ccc(C(F)(F)F)cc2)[C@H]2CC[C@H](O)CC2)c(C(=O)O)s1 [Compound 82, 5-(3,3-Dimethyl-but-1-ynyl)-3-[(trans-4-hydroxy-cyclohexyl)-(4-trifluoromethyl-benzoyl)-amino]thiophene-2-carboxylic acid]
CC50 at 72 h [3]: 10 to 100 µM | IC50 ([2]; Hepatitis C virus, W11.8, 96 h): 0.1 to 1 µM

CC(C)(C)C#Cc1cc(N(C(=O)c2ccc(Cl)cc2Cl)[C@H]2CC[C@H](O)CC2)c(C(=O)O)s1 [Compound 90, 3-[(2,4-Dichloro-benzoyl)-(trans-4-hydroxy-cyclohexyl)-amino]-5-(3,3-dimethyl-but-1-ynyl)-thiophene-2-carboxylic acid]
CC50 at 72 h [3]: 10 to 100 µM | IC50 ([2]; Hepatitis C virus, W11.8, 96 h): 0.1 to 1 µM

From patent publication US20140065103A1 (VERTEX PHARMACEUTICALS INCORPORATED, priority 2010, published 2014)
